The experiment addresses Pyruvate kinase PKLR (Homo sapiens) (UniProt P30613). Kind of experiment: Inhibition of human erythrocytes pyruvate kinase.

The structures appear in SMILES notation.

The term IC50 denotes the concentration needed to halve the response being measured. Low readings indicate higher potency, high ones lower potency.

Chain of Pyruvate kinase PKLR (Homo sapiens) (P30613 whole entry, looked up): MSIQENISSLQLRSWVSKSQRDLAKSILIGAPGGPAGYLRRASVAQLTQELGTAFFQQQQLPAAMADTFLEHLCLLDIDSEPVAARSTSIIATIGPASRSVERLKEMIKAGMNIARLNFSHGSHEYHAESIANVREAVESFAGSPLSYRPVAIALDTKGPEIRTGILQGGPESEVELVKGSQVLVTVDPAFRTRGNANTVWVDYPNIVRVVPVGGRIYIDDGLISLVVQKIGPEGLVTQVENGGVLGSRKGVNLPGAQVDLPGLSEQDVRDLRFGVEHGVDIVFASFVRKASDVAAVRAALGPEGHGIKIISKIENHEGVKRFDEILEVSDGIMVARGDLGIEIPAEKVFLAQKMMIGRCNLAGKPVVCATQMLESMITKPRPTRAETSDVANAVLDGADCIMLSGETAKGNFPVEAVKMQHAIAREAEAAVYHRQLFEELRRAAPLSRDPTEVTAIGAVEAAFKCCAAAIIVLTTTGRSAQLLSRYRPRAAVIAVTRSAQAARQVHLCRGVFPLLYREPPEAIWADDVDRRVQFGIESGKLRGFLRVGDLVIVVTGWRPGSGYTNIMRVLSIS

In the case of `O=C(O)c1ccc(SC2=NS(=O)(=O)c3ccccc32)cc1`, the IC50 amounted to 8 µM.

The values above are taken from BindingDB's records for PubMed 34726055 (Central University of Punjab, 2022).
